Laboratory results: article PMC6149822, “A New Series of Pyrrole-Based Chalcones: Synthesis and Evaluation of Antimicrobial Activity, Cytotoxicity, and Genotoxicity” (Molecules : A Journal of Synthetic Chemistry and Natural …, 2017)
Converted amounts (≈) assume the structure as drawn.

Legend:
[1] = system: C. albicans (ATCC 90028); assay: Microdilution susceptibility assay (MIC); type: cell-based; details: Candida albicans, ATCC90028
Description: (§1) Compounds 1–10 were screened for their antimicrobial activity against gram-negative bacteria, gram-positive bacteria, and yeasts, listed in Table 1. Bacteria were grown in Mueller-Hinton Broth and yeasts were grown in Sabouraud Dextrose Broth (SDB) during experiments. Overnight cultures were prepared routinely by subculturing of stock culture onto Mueller-Hinton Agar for bacteria and Sabouraud Dextrose Agar for yeasts.
(§2) Microdilution susceptibility assay was used for the determination of antibacterial and anticandidal efficacy of compounds 1–10. Chloramphenicol and ketoconazole were used as positive controls for bacteria and yeasts, respectively. All experiments were designed according to the Clinical Laboratory Standards Institute (CLSI). All chemicals were dissolved in dimethyl sulfoxide (DMSO) to obtain stock solution (10 mg/mL). Two-fold serial dilutions (800, 400, 200...0.78 µg/mL) of the compounds were prepared from stock solutions with dH2O. 100 µL of each solution was transferred to 96-well microtiter plates and 100 µL of 10^6 CFU/mL of bacteria and 2 × 10^3 of CFU/mL yeast were added to related wells. As negative controls, wells including microorganisms without agents and wells including agents without microorganisms were used. The plates were kept at 35 °C for 18–20 h and the growth was determined with resazurin (20 mg/mL). Assays were carried out in triplicate.

[2] = system: E. coli (ATCC 25922); assay: Microdilution susceptibility assay (MIC); type: cell-based; details: Escherichia coli, ATCC25922
Description: as §1, §2

[3] = system: E. faecalis (ATCC 29212); assay: Microdilution susceptibility assay (MIC); type: cell-based; details: Enterococcus faecalis, ATCC29212
Description: as §1, §2

[4] = system: E. faecalis (ATCC 51299); assay: Microdilution susceptibility assay (MIC); type: cell-based; details: Enterococcus faecalis, ATCC51299
Description: as §1, §2

[5] = system: K. pneumoniae (ATCC 700603); assay: Microdilution susceptibility assay (MIC); type: cell-based; details: Klebsiella pneumoniae, ATCC700603
Description: as §1, §2

[6] = system: S. aureus (ATCC 25923); assay: Microdilution susceptibility assay (MIC); type: cell-based; details: Staphylococcus aureus, ATCC25923
Description: as §1, §2

[7] = system: C. glabrata (ATCC 90030); assay: Microdilution susceptibility assay (MIC); type: cell-based, Candida glabrata; details: Nakaseomyces glabratus, ATCC90030
Description: as §1, §2

[8] = system: C. parapsilosis (ATCC 22019); assay: Microdilution susceptibility assay (MIC); type: cell-based, Candida parapsilosis; details: Lodderomyces parapsilosis, ATCC22019
Description: as §1, §2

[9] = system: C. krusei (ATCC 6258); assay: Microdilution susceptibility assay (MIC); type: cell-based, Candida krusei; details: Pichia kudriavzevii, ATCC6258
Description: as §1, §2

[10] = system: A549 human lung adenocarcinoma cell line; assay: MTT assay; type: cell-based; details: Homo sapiens, A549
Description: (§3) The anticancer effects of compounds 1–10 on A549 human lung adenocarcinoma (ATCC® CCL-185™), HepG2 human hepatocellular carcinoma (ATCC® HB-8065™), and C6 rat glioma (ATCC® CCL107™) cell lines were assessed using 3-(4,5-Dimethylthiazol-2-yl)-2,5-diphenyltetrazolium bromide (MTT) assay, whereas the selectivity of compounds 1–10 was tested using NIH/3T3 mouse embryonic fibroblast cell line (ATCC® CRL-1658™, London, UK). All cell lines were incubated according to the supplier’s recommendations. The cells were seeded as 1 × 10^4 cells into each well of the 96-well plates. MTT assay was performed as previously described. The compounds were tested between the concentrations equal to 1 mM and 0.000316 mM (1.0, 0.316, 0.10, 0.0316, 0.01, 0.00316, 0.001, 0.000316 mM). Stock solutions of compounds were prepared in dimethyl sulfoxide (DMSO) and further dilutions were made with fresh culture medium. The final DMSO concentration was under 1% [34] and cisplatin was used as a positive control. Inhibition % was calculated for each concentration according to the formula below, and IC50 values were determined by plotting a dose–response curve of inhibition % versus compound concentrations tested. All experiments were performed in quadruplicate.Inhibition % = 100 − [(ODtest compound − ODblank/ODsolvent control − ODblank)] × 100(1)

[11] = system: C6 rat glioma cell line; assay: MTT assay; type: cell-based; details: Rattus norvegicus, C6
Description: as §3

[12] = system: HepG2 human hepatocellular carcinoma cell line; assay: MTT assay; type: cell-based; details: Homo sapiens, HepG2
Description: as §3

[13] = system: NIH/3T3 mouse embryonic fibroblast cell line; assay: MTT assay; type: cell-based; details: Mus musculus, NIH3T3, healthy cells for selectivity
Description: as §3

[14] = system: C. glabrata; assay: ATP luminescence microbial cell viability assay; type: cell-based, Candida glabrata; details: 24 h treatment, result in words
Description: (§4) A model from BioTek Instruments Inc. combined with a BacTiter-Glo^TM Microbial Cell Viability assay (Promega Corp., Madison, WI, USA) was used to provide a sensitive and rapid method for determining the number of viable microbial cells in culture based on quantitation of the ATP present. […] After incubation, cultures were added into the wells (final concentration of bacteria was 5 × 10^5 CFU/mL and 2.5 × 10^6 CFU/mL for yeasts). After adding the BacTiter reagent, incubation time for bacteria and yeasts was 5 min and 15 min, respectively.
(§5) The assay generates a “glow-type” luminescent signal, produced by the luciferase reaction. Briefly, after chemicals and strains were incubated for 24 h, 100 µL of the culture was taken from each well and mixed with the same volume of the BacTiter-Glo™ reagent in a white, opaque-walled microtiter plate. Control wells containing medium without cells were prepared to obtain a value for background luminescence. Cells without compound were used as an ATP-positive control. The microplates were further incubated under agitation for 7 min. Bioluminescence was recorded in a multi-detection microplate reader (BioTek Synergy 2 Multi-Mode Microplate Reader, BioTek Instruments, Winooski, VT, USA). In Figure 3, results were given as percentage of untreated control, which is set at 100%. Experiments were performed in triplicate and each sample was measured in four replicates.

[15] = system: E. faecalis (ATCC 51299); assay: ATP luminescence microbial cell viability assay; type: cell-based, Enterococcus faecalis; details: 24 h treatment, result in words
Description: as §4, §5

[16] = system: C. krusei cells; assay: Flow cytometry live/dead analysis (TO/PI); type: cell-based, Candida krusei; details: 25 µg/mL, 4 h
Text: In order to investigate the effects of compounds 7 and 9 on the integrity of C. krusei cells, flow cytometry was used with BD cell viability kits. Live cells are impermeable to dyes such as PI since they have intact membranes. TO is a permeant dye and enters live and dead cells to varying degrees. The fluorescent signal from TO in viable cells allows their enumeration, even when debris in the cell preparation contaminates a scatter gate around the cells. Thus, the combination of these two dyes provides a rapid and reliable method for discriminating live and dead eukaryotic cells, including yeasts. All steps were performed according to manufacturers’ recommendations. Briefly, Candida cells were cultured at 35 °C in SDB until late log phase. The cells were centrifuged and washed with phosphate-buffered saline (PBS) at pH = 7.0. Suspensions containing 2 × 10^3 cells/mL were incubated with compounds 7 and 9, and ketoconazole as a reference drug, for 4 h at 35 °C, with shaking (200 r.p.m.). […] Suspensions of treated and untreated cells were incubated for 30 min in the presence of 2 µL of PI and 2 µL of TO, in the dark, at room temperature. The cell suspensions were analysed in a BD Accuri C6 flow cytometer (Becton-Dickinson, Mansfield, MA, USA). The cell scattergram (forward scatter: FS, side scatter: SS), the autofluorescence (without fluorocrome), and the intensity of fluorescence at FL1 (green fluorescence, 525 nm) and FL2 (red fluorescence, 620 nm) were recorded using a logarithmic scale.

SMILES	MIC [1] [µg/mL]	MIC [2] [µg/mL]	MIC [3] [µg/mL]	MIC [4] [µg/mL]	MIC [5] [µg/mL]	MIC [6] [µg/mL]	MIC [7] [µg/mL]	MIC [8] [µg/mL]	MIC [9] [µg/mL]	IC50 [10] [µg/mL]	IC50 [11] [µg/mL]	IC50 [12] [µg/mL]	melting point [°C]	IC50 [13] [µg/mL]	antifungal activity in ATP bioluminescence assay [14]	antimicrobial activity in ATP bioluminescence assay [15]	Dead Cell % [16] [%]	Live Cell % [16] [%]
Cn1cccc1C(=O)C=Cc1ccc(-c2ccccc2Cl)o1 [Compound 5, 1-(1-Methyl-1H-pyrrol-2-yl)-3-(5-(2-chlorophenyl)furan-2-yl)prop-2-en-1-one]	200 (≈ 642 µM)	400 (≈ 1280 µM)	200 (≈ 642 µM)	200 (≈ 642 µM)	200 (≈ 642 µM)	400 (≈ 1280 µM)	200 (≈ 642 µM)	100 (≈ 321 µM)	200 (≈ 642 µM)	311 (≈ 998 µM)	> 311	31 (≈ 99.4 µM)	95 to 96	45 (≈ 144 µM)	–	–	–	–
CC(=O)N1CCN(c2ccc(OCC3COC(Cn4ccnc4)(c4ccc(Cl)cc4Cl)O3)cc2)CC1 (stereo not shown) [Ketoconazole, reference compound]	50 (≈ 94.1 µM)	–	–	–	–	–	100 (≈ 188 µM)	50 (≈ 94.1 µM)	50 (≈ 94.1 µM)	–	–	–	–	–	–	–	18.4	81.2

More lines, main results first:

MIC [1] [µg/mL]	MIC [2] [µg/mL]	MIC [3] [µg/mL]	MIC [4] [µg/mL]	MIC [5] [µg/mL]	MIC [6] [µg/mL]	MIC [7] [µg/mL]	MIC [8] [µg/mL]	MIC [9] [µg/mL]	IC50 [10] [µg/mL]	IC50 [11] [µg/mL]	IC50 [12] [µg/mL]	melting point [°C]	SMILES	IC50 [13] [µg/mL]	antifungal activity in ATP bioluminescence assay [14]	antimicrobial activity in ATP bioluminescence assay [15]	Dead Cell % [16] [%]	Live Cell % [16] [%]
200 (≈ 642 µM)	100 (≈ 321 µM)	200 (≈ 642 µM)	200 (≈ 642 µM)	200 (≈ 642 µM)	200 (≈ 642 µM)	200 (≈ 642 µM)	100 (≈ 321 µM)	200 (≈ 642 µM)	98 (≈ 314 µM)	103 (≈ 330 µM)	98 (≈ 314 µM)	121 to 122	Cn1cccc1C(=O)C=Cc1ccc(-c2cccc(Cl)c2)o1 [Compound 6, 1-(1-Methyl-1H-pyrrol-2-yl)-3-(5-(3-chlorophenyl)furan-2-yl)prop-2-en-1-one]	38 (≈ 122 µM)	–	–	–	–
200 (≈ 578 µM)	100 (≈ 289 µM)	200 (≈ 578 µM)	400 (≈ 1160 µM)	200 (≈ 578 µM)	400 (≈ 1160 µM)	100 (≈ 289 µM)	100 (≈ 289 µM)	50 (≈ 144 µM)	225 (≈ 650 µM)	90 (≈ 260 µM)	106 (≈ 306 µM)	98 to 99	Cn1cccc1C(=O)C=Cc1ccc(-c2ccc(Cl)cc2Cl)o1 [Compound 8, 1-(1-Methyl-1H-pyrrol-2-yl)-3-(5-(2,4-dichlorophenyl)furan-2-yl)prop-2-en-1-one]	277 (≈ 800 µM)	antifungal activity close to ketoconazole	–	–	–
100 (≈ 289 µM)	100 (≈ 289 µM)	400 (≈ 1160 µM)	100 (≈ 289 µM)	200 (≈ 578 µM)	200 (≈ 578 µM)	200 (≈ 578 µM)	100 (≈ 289 µM)	200 (≈ 578 µM)	346 (≈ 999 µM)	100 (≈ 289 µM)	100 (≈ 289 µM)	132 to 133	Cn1cccc1C(=O)C=Cc1ccc(-c2ccc(Cl)c(Cl)c2)o1 [Compound 10, 1-(1-Methyl-1H-pyrrol-2-yl)-3-(5-(3,4-dichlorophenyl)furan-2-yl)prop-2-en-1-one]	148 (≈ 427 µM)	–	antimicrobial activity close to chloramphenicol	–	–
